Assay results: patent US8138374B2, “Composition for external application to skin” (Shiseido Company, Ltd., priority 2007, dated 2012)

Test: Solubility evaluation (appearance and solubility)
Type: physicochemical
Conditions: for Solubility (%) Ethanol / Appearance (Room Temperature) / Solubility (%) Water: room temperature; for Solubility (%) Ethanol / Solubility (%) Water: judged by appearance, ">" = concentration at which dissolution was confirmed, actual solubility greater than or equal
Protocol: Furthermore, dissolution was evaluated based on appearance after preparing a solution at room temperature. The solubilities shown in the table indicate the concentration at which dissolution was confirmed, and those results shown with a “>” symbol in the table indicate the concentration at which the substance was confirmed to dissolve, and actual solubility is greater than or equal to this concentration.

Row | SMILES | Solubility (%) Ethanol (ethanol) | Appearance (Room Temperature) | Solubility (%) Water (water) | solubility in ethanol (in words) (ethanol) | solubility in water (in words) (water)
1 | CNCC(=O)N(C)C [N,N-dimethyl-2-(methylamino)acetoamide] | >58% | Liquid | >55% |  | 
2 | CNCC(=O)O [Sarcosine, reference compound] | 0.10% |  | 71.5% | poorly soluble | high solubility
3 | CNCC(=O)N(C)C.Cl [N,N-dimethyl-2-(methylamino)acetoamide hydrochloride] | >14.1% | White crystal | >77% |  | 
